According to ChEMBL document CHEMBL5550173, “Design, synthesis and biological evaluation of indoline-maleimide conjugates as potential antitumor agents for the treatment of colorectal cancer” (Bioorg Med Chem, 2024):
The source made the active and inactive calls. No cut-off for these calls is given here.

Experiments:
HCT-116 [1] = assay: Cytotoxicity against human HCT-116 cells at 5 uM incubated for 72 hrs by MTS assay; type: functional
HCT-116 [2] = assay: Cytotoxicity against human HCT-116 cells incubated for 72 hrs by MTS assay; type: functional, cell-based; conditions: HCT-116, 72 h
HCT-116 [3] = assay: Inhibition of colony formation in human HCT-116 cells incubated for 10 days with every 3 days of media replacement by crystal violet staining based assay; type: functional, cell-based; conditions: dose 1-4 µM, time 10.0 day
HCT-116 [4] = assay: Inhibition of colony formation in human HCT-116 cells at 4 uM incubated for 10 days with every 3 days of media replacement by crystal violet staining based assay; type: functional; conditions: HCT-116, 240 h, time 10 day
RKO [5] = assay: Inhibition of colony formation in human RKO cells incubated about 10 days with every 3 days of media replacement by crystal violet staining based assay; type: functional, cell-based; conditions: dose 1-4 µM, time 10.0 day
RKO [6] = assay: Inhibition of colony formation in human RKO cells at 4 uM incubated for 10 days with every 3 days of media replacement by crystal violet staining based assay; type: functional; conditions: 240 h, time 10 day
HCT-116 [7] = assay: Induction of apoptosis in human HCT-116 cells assessed as viable cells at 2.5 uM incubated for 48 hrs by Annexin V-PE and propidium iodide staining based flow cytometry analysis (reference value: 97.8%); type: functional; conditions: read-out: Activity
HCT-116 [8] = assay: Induction of apoptosis in human HCT-116 cells assessed as early apoptotic cells at 2.5 uM incubated for 48 hrs by Annexin V-PE and propidium iodide staining based flow cytometry analysis (reference value: 0.4%); type: functional
HCT-116 [9] = assay: Induction of apoptosis in human HCT-116 cells assessed as late apoptotic cells at 2.5 uM incubated for 48 hrs by Annexin V-PE and propidium iodide staining based flow cytometry analysis (reference value: 0.5%); type: functional
HCT-116 [10] = assay: Induction of apoptosis in human HCT-116 cells assessed as necrotic cells at 2.5 uM incubated for 48 hrs by Annexin V-PE and propidium iodide staining based flow cytometry analysis (reference value: 1.3%); type: functional
HCT-116 [11] = assay: Induction of apoptosis in human HCT-116 cells assessed as viable cells at 5 uM incubated for 48 hrs by Annexin V-PE and propidium iodide staining based flow cytometry analysis (reference value: 97.8%); type: functional; conditions: read-out: Activity
HCT-116 [12] = assay: Induction of apoptosis in human HCT-116 cells assessed as early apoptotic cells at 10 uM incubated for 48 hrs by Annexin V-PE and propidium iodide staining based flow cytometry analysis (reference value: 0.4%); type: functional
HCT-116 [13] = assay: Induction of apoptosis in human HCT-116 cells assessed as late apoptotic cells at 10 uM incubated for 48 hrs by Annexin V-PE and propidium iodide staining based flow cytometry analysis (reference value: 0.5%); type: functional
RKO [14] = assay: Induction of apoptosis in human RKO cells assessed as early apoptotic cells at 2.5 uM incubated for 48 hrs by Annexin V-PE and propidium iodide staining based flow cytometry analysis (reference value: 0.2%); type: functional
RKO [15] = assay: Induction of apoptosis in human RKO cells assessed as late apoptotic cells at 2.5 uM incubated for 48 hrs by Annexin V-PE and propidium iodide staining based flow cytometry analysis (reference value: 0.3%); type: functional
RKO [16] = assay: Induction of apoptosis in human RKO cells assessed as necrotic cells at 2.5 uM incubated for 48 hrs by Annexin V-PE and propidium iodide staining based flow cytometry analysis (reference value: 0.3%); type: functional
HCT-116 [17] = assay: Induction of apoptosis in human HCT-116 cells assessed as upregulation of cleaved caspase-3 expression incubated for 48 hrs by Western blotting analysis; type: functional, cell-based; conditions: dose 2.5-10 µM
HCT-116 [18] = assay: Induction of apoptosis in human HCT-116 cells assessed as upregulation of cleaved caspase-7 expression incubated for 48 hrs by Western blotting analysis; type: functional, cell-based; conditions: dose 2.5-10 µM
HCT-116 [19] = assay: Induction of cell cycle arrest in human HCT-116 cells assessed as downregulation of CDK6 expression at 2.5 to 10 uM incubated for 48 hrs by Western blotting analysis; type: functional, cell-based; conditions: dose 2.5-10 µM
HCT-116 [20] = assay: Induction of cell cycle arrest in human HCT-116 cells assessed as upregulation of p53 expression at 2.5 to 10 uM incubated for 48 hrs by Western blotting analysis; type: functional, cell-based; conditions: dose 2.5-10 µM
HCT-116 [21] = assay: Induction of cell cycle arrest in human HCT-116 cells assessed as upregulation of p21 expression at 2.5 to 10 uM incubated for 48 hrs by Western blotting analysis; type: functional, cell-based; conditions: dose 2.5-10 µM
HCT-116 [22] = assay: Effect on CDK2 expression in human HCT-116 cells at 2.5 to 10 uM incubated for 48 hrs by Western blotting analysis; type: functional, cell-based; conditions: dose 2.5-10 µM
HCT-116 [23] = assay: Effect on cyclin D1 expression in human HCT-116 cells at 2.5 to 10 uM incubated for 48 hrs by Western blotting analysis; type: functional, cell-based; conditions: dose 2.5-10 µM
RKO [24] = assay: Induction of cell cycle arrest in human RKO cells assessed as upregulation of p53 expression at 2.5 to 10 uM incubated for 48 hrs by Western blotting analysis; type: functional, cell-based; conditions: dose 2.5-10 µM
RKO [25] = assay: Induction of cell cycle arrest in human RKO cells assessed as upregulation of p21 expression at 2.5 to 10 uM incubated for 48 hrs by Western blotting analysis; type: functional, cell-based; conditions: dose 2.5-10 µM
RKO [26] = assay: Effect on cyclin D1 expression in human RKO cells at 2.5 to 10 uM incubated for 48 hrs by Western blotting analysis; type: functional, cell-based; conditions: dose 2.5-10 µM
RKO [27] = assay: Effect on RB1 expression in human RKO cells at 2.5 to 10 uM incubated for 48 hrs by Western blotting analysis; type: functional, cell-based; conditions: dose 2.5-10 µM
[28] = molecular target: Glycogen synthase kinase-3 beta (Homo sapiens) (UniProt P49841); assay: Inhibition of GSK-3beta phosphorylation in human HCT-116 cells by incubated for 48 hrs Western blotting analysis; type: cell-based; conditions: dose 2.5-10 µM
Glycogen synthase kinase-3 beta (Homo sapiens), sequence (P49841 whole entry, looked up): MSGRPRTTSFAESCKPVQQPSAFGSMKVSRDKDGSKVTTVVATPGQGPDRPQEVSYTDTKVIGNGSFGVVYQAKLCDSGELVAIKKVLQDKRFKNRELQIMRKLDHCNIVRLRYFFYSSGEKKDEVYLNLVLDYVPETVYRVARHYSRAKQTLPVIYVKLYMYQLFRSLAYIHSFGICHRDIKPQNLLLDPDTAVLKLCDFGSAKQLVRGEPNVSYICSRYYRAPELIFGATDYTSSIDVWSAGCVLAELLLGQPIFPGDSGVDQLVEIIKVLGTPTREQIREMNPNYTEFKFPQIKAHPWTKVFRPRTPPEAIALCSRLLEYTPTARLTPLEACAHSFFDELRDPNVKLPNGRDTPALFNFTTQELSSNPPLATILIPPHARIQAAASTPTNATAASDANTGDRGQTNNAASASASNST

HCT-116 [29] = assay: Effect on AKT level in human HCT-116 cells at 2.5 to 10 uM incubated for 48 hrs by Western blotting analysis; type: functional, cell-based; conditions: dose 2.5-10 µM
HCT-116 [30] = assay: Antitumor activity against human HCT-116 cells xenografted in BALB/c mouse assessed as reduction in tumor weight at 5 to 10 mg/kg, ip administered every 2 days; type: functional, organism-based; conditions: dose 5-10 mg/kg
[31] = Toxicity in BALB/c nude mouse assessed as changes in body weight at 5 to 10 mg/kg, ip administered every 2 days; type: organism-based; conditions: in vivo, 48 h, dose 5-10 mg/kg
[32] = Toxicity in BALB/c nude mouse assessed as adverse effect at 5 to 10 mg/kg, ip administered every 2 days; type: organism-based; conditions: in vivo, 48 h, dose 5-10 mg/kg
HCT-116 [33] = assay: Antitumor activity against human HCT-116 cells xenografted in BALB/c mouse assessed as tumor growth suppression at 5 to 10 mg/kg, ip measured every 2 days by H and E staining based assay; type: functional, organism-based; conditions: dose 5-10 mg/kg
[34] = Acute toxicity in BALB/c mouse assessed as appearance of abnormal behavior at 50 to 100 mg/kg, ip measured every 2 days; type: organism-based; conditions: in vivo, 48 h, dose 50-100 mg/kg
[35] = Acute toxicity in BALB/c mouse assessed as heart lesion at 50 to 100 mg/kg, ip measured every 2 days by H and E staining based assay; type: organism-based; conditions: in vivo, 48 h, dose 50-100 mg/kg
[36] = Acute toxicity in BALB/c mouse assessed as spleen lesion at 50 to 100 mg/kg, ip measured every 2 days by H and E staining based assay; type: organism-based; conditions: in vivo, 48 h, dose 50-100 mg/kg
[37] = Acute toxicity in BALB/c mouse assessed as kidney lesion at 50 to 100 mg/kg, ip measured every 2 days by H and E staining based assay; type: organism-based; conditions: in vivo, 48 h, dose 50-100 mg/kg

C=C(C)C(=O)N1CCc2cccc(C3=CC(=O)N(C)C3=O)c21
Activity (HCT-116 [1]): 98.06% | IC50 (HCT-116 [2]): 1570 nM | inhibition (HCT-116 [3]): Dose-Dependent Effect | inhibition at 4 µM (HCT-116 [4]): 100% | inhibition (RKO [5]): Dose-Dependent Effect | inhibition at 4 µM (RKO [6]): 100% | viability at 2.5 µM (HCT-116 [7]): 96.5% | Activity (HCT-116 [8]): 0.7% | Activity (HCT-116 [9]): 1% | Activity (HCT-116 [10]): 1.8% | viability at 5 µM (HCT-116 [11]): 93.6% | Activity (HCT-116 [12]): 5% | Activity (HCT-116 [13]): 4.6% | Activity (RKO [14]): 0.5% | Activity (RKO [15]): 0.4% | Activity (RKO [16]): 0.1% | Activity (HCT-116 [17]): Dose-Dependent Effect | Activity (HCT-116 [18]): Dose-Dependent Effect | Activity (HCT-116 [19]): Active | Activity (HCT-116 [20]): Active | Activity (HCT-116 [21]): Active | Activity (HCT-116 [22]): inactive | Activity (HCT-116 [23]): inactive | Activity (RKO [24]): Active | Activity (RKO [25]): Active | Activity (RKO [26]): inactive | Activity (RKO [27]): inactive | inhibition [28]: Dose-Dependent Effect | Activity (HCT-116 [29]): inactive | Activity (HCT-116 [30]): Active | Activity [31]: Non-Toxic | Activity [32]: Non-Toxic | Activity (HCT-116 [33]): Active | Activity [34]: Non-Toxic | Activity [35]: Non-Toxic | Activity [36]: Non-Toxic | Activity [37]: Non-Toxic
